Source: patent US10703760B2, “Morphic forms of marizomib and uses thereof” (Celgene International II Sàrl, priority 2016, dated 2020)
Values after ≈ are worked out from the molar mass of the structure shown.

What was measured:
[1] = Approximate solubility of Sample 4 by solvent aliquot addition, visual inspection; post-solubility storage; format: physicochemical; conditions: for solubility: thermodynamic from solid
Description: Weighed samples of MRZ, Sample 4 were treated with aliquots of the test solvents or solvent mixtures at ambient temperature. Complete dissolution of the test material was determined by visual inspection. Solubility was estimated based on the total solvent volume used to provide complete dissolution. The actual solubility may be greater than the value calculated because of the use of solvent aliquots that were too large or due to a slow rate of dissolution. If complete dissolution was not achieved during the experiment, the solubility is expressed as “less than”. If complete dissolution was achieved by only one aliquot addition, the value is reported as “larger than”. As set forth in Table-9, the ratio of solvent mixtures are given by volume. Solubilities are estimated at ambient temperature and reported to the nearest mg/mL; if complete dissolution was not achieved, the value is reported as “<”; the actual solubility may be greater than the reported value due to the use of solvent aliquots that were too large or due to a slow rate of dissolution. Post-solubility samples were stored at 2-8° C. for 15-16 days followed by 1 day at ambient storage before visual inspection for precipitation. Post-solubility samples were visually inspected after 2-3 days of ambient storage. Formation system A is: 55% propylene glycol+5% ethanol+40% citrate buffer (10 mM; pH 5). Formation system B is: 14/86 (v/v) H2O/tert-butyl alcohol containing 30 mg/mL sucrose, and titrated with HCl to pH 3.2±0.2.

Salt screen of marizomib = format: physicochemical; conditions: sulfonic acids and mineral acids
Description: For crash cooling (CC), a solution of MRZ and coformer was prepared at elevated temperature in a given solvent mixture. The vial was capped and immediately placed in a refrigerator or freezer. For fast cooling (FC), solutions of MRZ and coformer were prepared at elevated temperatures in given solvents or solvent mixtures. The vial was capped and placed on a bench top at room temperature to quickly cool. For slow cooling (SC), a solution of MRZ and coformer was prepared at elevated temperature in a given solvent mixture. The vial was capped and left in a heating block at elevated temperature. The heater then was turned off for the sample to cool down naturally to room temperature. For slow evaporation (SE), solutions of MRZ and coformer were generated at ambient temperature in a given solvent or solvent mixture. The solutions were allowed to evaporate partially or to dryness from a loosely capped vial at ambient conditions. Slurry experiments were carried out by making saturated solutions containing excess solid. The slurries were agitated at ambient or elevated temperatures for a specified amount of time. The solids present were recovered via positive pressure filtration. Solvent assisted grinding experiments were carried out by mixing MRZ and coformer in an agate mortar and pestle. Aliquots of solvent were added and the mixture ground manually for specified amount of time. […]

Compound: C[C@@]12OC(=O)[C@]1([C@@H](O)[C@@H]1C=CCCC1)NC(=O)[C@@H]2CCCl [Sample 4, marizomib]
- solubility ([1]; aqueous with cosolvent or surfactant or cyclodextrin, Formulation System A (55% propylene glycol + 5% EtOH + 40% citrate buffer 10 mM pH 5), ambient temperature): < 1 mg/mL
- solubility ([1]; aqueous with cosolvent or surfactant or cyclodextrin, Formulation System B (14/86 v/v H2O/tBA, 30 mg/ml sucrose, pH 3.2), ambient temperature): 6 mg/mL (≈ 19.1 mM)
- solubility ([1]; organic solvent or mixture, 1-propanol, ambient temperature): 2 mg/mL (≈ 6.37 mM)
- solubility ([1]; organic solvent or mixture, 2,2,2-trifluoroethanol, ambient temperature): < 1 mg/mL
- solubility ([1]; organic solvent or mixture, 2-Me THF, ambient temperature): 32 mg/mL (≈ 102 mM)
- solubility ([1]; organic solvent or mixture, 20:80 2-MeTHF/MeOAc (v/v), ambient temperature): 34 mg/mL (≈ 108 mM)
- solubility ([1]; organic solvent or mixture, 20:80 CHCl3/DCM (v/v), ambient temperature): 3 mg/mL (≈ 9.56 mM)
- solubility ([1]; organic solvent or mixture, 20:80 MEK/IPA (v/v), ambient temperature): 10 mg/mL (≈ 31.9 mM)
- solubility ([1]; organic solvent or mixture, 20:80 MEK/MIBK (v/v), ambient temperature): 12 mg/mL (≈ 38.2 mM)
- solubility ([1]; organic solvent or mixture, 20:80 NMP/1-propanol (v/v), ambient temperature): 19 mg/mL (≈ 60.6 mM)
- solubility ([1]; organic solvent or mixture, 20:80 NMP/IPA (v/v), ambient temperature): 19 mg/mL (≈ 60.6 mM)
- solubility ([1]; organic solvent or mixture, 20:80 THF/nitromethane (v/v), ambient temperature): 15 mg/mL (≈ 47.8 mM)
- solubility ([1]; organic solvent or mixture, 25:75 ACN/MTBE (v/v), ambient temperature): 10 mg/mL (≈ 31.9 mM)
- solubility ([1]; organic solvent or mixture, 25:75 DMF/anisole (v/v), ambient temperature): 17 mg/mL (≈ 54.2 mM)
- solubility ([1]; organic solvent or mixture, 50:50 EtOAc/cyclohexane (v/v), ambient temperature): 4 mg/mL (≈ 12.7 mM)
- solubility ([1]; organic solvent or mixture, 50:50 EtOAc/isooctane (v/v), ambient temperature): 2 mg/mL (≈ 6.37 mM)
- solubility ([1]; organic solvent or mixture, 50:50 MeOH/Et2O (v/v), ambient temperature): 21 mg/mL (≈ 66.9 mM)
- solubility ([1]; organic solvent or mixture, 50:50 THF/hexanes (v/v), ambient temperature): 21 mg/mL (≈ 66.9 mM)
- solubility ([1]; organic solvent or mixture, 50:50 acetone/heptane (v/v), ambient temperature): 12 mg/mL (≈ 38.2 mM)
- solubility ([1]; organic solvent or mixture, 50:50 acetone/iso-octane (v/v), ambient temperature): 12 mg/mL (≈ 38.2 mM)
- solubility ([1]; organic solvent or mixture, ACN, ambient temperature): 10 mg/mL (≈ 31.9 mM)
- solubility ([1]; organic solvent or mixture, CHCl3, ambient temperature): 2 mg/mL (≈ 6.37 mM)
- solubility ([1]; organic solvent or mixture, DCM, ambient temperature): 2 mg/mL (≈ 6.37 mM)
- solubility ([1]; organic solvent or mixture, DMSO, ambient temperature): > 83 mg/mL
- solubility ([1]; organic solvent or mixture, EtOAc, ambient temperature): 15 mg/mL (≈ 47.8 mM)
- solubility ([1]; organic solvent or mixture, Formic acid, ambient temperature): 15 mg/mL (≈ 47.8 mM)
- solubility ([1]; organic solvent or mixture, IPA, ambient temperature): 6 mg/mL (≈ 19.1 mM)
- solubility ([1]; organic solvent or mixture, MEK, ambient temperature): 33 mg/mL (≈ 105 mM)
- solubility ([1]; organic solvent or mixture, MIBK, ambient temperature): 11 mg/mL (≈ 35.1 mM)
- solubility ([1]; organic solvent or mixture, MeOAc, ambient temperature): 20 mg/mL (≈ 63.7 mM)
- solubility ([1]; organic solvent or mixture, NMP, ambient temperature): 5 mg/mL (≈ 15.9 mM)
- solubility ([1]; organic solvent or mixture, THF, ambient temperature): 49 mg/mL (≈ 156 mM)
- solubility ([1]; organic solvent or mixture, [EMIm][Cl], ambient temperature): < 2 mg/mL
- solubility ([1]; organic solvent or mixture, [EMIm][NTF2], ambient temperature): 1 mg/mL (≈ 3.19 mM)
- solubility ([1]; organic solvent or mixture, acetic acid, ambient temperature): 10 mg/mL (≈ 31.9 mM)
- solubility ([1]; organic solvent or mixture, acetone, ambient temperature): 39 mg/mL (≈ 124 mM)
- solubility ([1]; organic solvent or mixture, anisole, ambient temperature): 2 mg/mL (≈ 6.37 mM)
- solubility ([1]; organic solvent or mixture, cyclohexanone, ambient temperature): 22 mg/mL (≈ 70.1 mM)
- solubility ([1]; organic solvent or mixture, dioxane, ambient temperature): 20 mg/mL (≈ 63.7 mM)
- solubility ([1]; organic solvent or mixture, nitromethane, ambient temperature): 2 mg/mL (≈ 6.37 mM)
- solubility ([1]; organic solvent or mixture, pyridine, ambient temperature): 36 mg/mL (≈ 115 mM)
- solubility ([1]; organic solvent or mixture, tert-butanol, ambient temperature): 3 mg/mL (≈ 9.56 mM)
- Precipitates formed during storage? ([1]; post-solubility sample in 1-propanol): no
- Precipitates formed during storage? ([1]; post-solubility sample in 2-Me THF): no
- Precipitates formed during storage? ([1]; post-solubility sample in 20:80 2-MeTHF/MeOAc): no
- Precipitates formed during storage? ([1]; post-solubility sample in 20:80 CHCl3/DCM): no
- Precipitates formed during storage? ([1]; post-solubility sample in 20:80 MEK/IPA): no
- Precipitates formed during storage? ([1]; post-solubility sample in 20:80 MEK/MIBK): no
- Precipitates formed during storage? ([1]; post-solubility sample in 20:80 NMP/1-propanol): no
- Precipitates formed during storage? ([1]; post-solubility sample in 20:80 NMP/IPA): no
- Precipitates formed during storage? ([1]; post-solubility sample in 20:80 THF/nitromethane): no
- Precipitates formed during storage? ([1]; post-solubility sample in 25:75 ACN/MTBE): no
- Precipitates formed during storage? ([1]; post-solubility sample in 25:75 DMF/anisole): no
- Precipitates formed during storage? ([1]; post-solubility sample in 50:50 EtOAc/cyclohexane): no
- Precipitates formed during storage? ([1]; post-solubility sample in 50:50 EtOAc/isooctane): no
- Precipitates formed during storage? ([1]; post-solubility sample in 50:50 MeOH/Et2O): no
- Precipitates formed during storage? ([1]; post-solubility sample in 50:50 THF/hexanes): no
- Precipitates formed during storage? ([1]; post-solubility sample in 50:50 acetone/heptane): no
- Precipitates formed during storage? ([1]; post-solubility sample in 50:50 acetone/iso-octane): no
- Precipitates formed during storage? ([1]; post-solubility sample in ACN): no
- Precipitates formed during storage? ([1]; post-solubility sample in CHCl3): yes
- Precipitates formed during storage? ([1]; post-solubility sample in DCM): no
- Precipitates formed during storage? ([1]; post-solubility sample in DMSO): no
- Precipitates formed during storage? ([1]; post-solubility sample in EtOAc): no
- Precipitates formed during storage? ([1]; post-solubility sample in Formic acid): no
- Precipitates formed during storage? ([1]; post-solubility sample in Formulation System B): no
- Precipitates formed during storage? ([1]; post-solubility sample in IPA): no
- Precipitates formed during storage? ([1]; post-solubility sample in MEK): yes (small amount)
- Precipitates formed during storage? ([1]; post-solubility sample in MIBK): no
- Precipitates formed during storage? ([1]; post-solubility sample in MeOAc): no
- Precipitates formed during storage? ([1]; post-solubility sample in NMP): no
- Precipitates formed during storage? ([1]; post-solubility sample in THF): no
- Precipitates formed during storage? ([1]; post-solubility sample in acetic acid): no
- Precipitates formed during storage? ([1]; post-solubility sample in acetone): no
- Precipitates formed during storage? ([1]; post-solubility sample in anisole): no
- Precipitates formed during storage? ([1]; post-solubility sample in cyclohexanone): no
- Precipitates formed during storage? ([1]; post-solubility sample in dioxane): no
- Precipitates formed during storage? ([1]; post-solubility sample in nitromethane): no
- Precipitates formed during storage? ([1]; post-solubility sample in pyridine): no
- Precipitates formed during storage? ([1]; post-solubility sample in tert-butanol): no

Compound: C[C@@]12OC(=O)[C@]1([C@@H](O)[C@@H]1C=CCCC1)NC(=O)[C@@H]2CCCl [marizomib]
- Crystalline salt formation (Salt screen of marizomib): No crystalline salt of marizomib was produced
